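Interpolation was linear, between the two tested concentrations surrounding the appropriate level; five concentrations were tested over 48 hours in 96-well plates. Here, GI50 denotes the concentration required for 50% inhibition of growth. TGI marks complete inhibition of growth.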
Key:
Experiment in all cases: inhibition of tumour cell growth, NCI panel, 48 h
EKVX NSCLC = test system: EKVX NSCLC
SW-620 colon = test system: SW-620 colon
HCT-116 colon = test system: HCT-116 colon
M14 melanoma = test system: M14 melanoma
NCI-H522 lung = test system: NCI-H522 lung
U251 CNS = test system: U251 CNS
BT-549 breast = test system: BT-549 breast
786-0 renal = test system: 786-0 renal
OVCAR-4 ovarian = test system: OVCAR-4 ovarian
SK-OV-3 ovarian = test system: SK-OV-3 ovarian

| SMILES | GI50 (EKVX NSCLC) [µM] | TGI (EKVX NSCLC) [µM] | GI50 (SW-620 colon) [µM] | TGI (SW-620 colon) [µM] | GI50 (HCT-116 colon) [µM] | TGI (HCT-116 colon) [µM] | GI50 (M14 melanoma) [µM] | TGI (M14 melanoma) [µM] | GI50 (NCI-H522 lung) [µM] | TGI (NCI-H522 lung) [µM] | GI50 (U251 CNS) [µM] | TGI (U251 CNS) [µM] | GI50 (BT-549 breast) [µM] | TGI (BT-549 breast) [µM] | GI50 (786-0 renal) [µM] | TGI (786-0 renal) [µM] | GI50 (OVCAR-4 ovarian) [µM] | TGI (OVCAR-4 ovarian) [µM] | GI50 (SK-OV-3 ovarian) [µM] | TGI (SK-OV-3 ovarian) [µM] |
| --- | --- | --- | --- | --- | --- | --- | --- | --- | --- | --- | --- | --- | --- | --- | --- | --- | --- | --- | --- | --- |
| Cc1ccc2[nH]c(C(=O)NN3C(=O)CSC34CCCC(C)C4)c(-c3ccccc3)c2c1 (stereo not given) | 24.2 | 58.8 | 25.6 | 67.1 | 14.6 | 31 | 18.8 | 35.5 | 11.9 | 25.6 | 17.3 | 33.6 | 19.5 | 36.5 | 19.6 | 39.3 | 18.4 | 40.2 | 21.5 | 48.3 |
| COc1cc(C2CC(c3ccc4c(c3)OCO4)=NN2C(C)=O)cc(OC)c1OC (stereo not given) | 3.13 | > 100 | 0.426 | > 100 | 0.491 | > 100 | 0.536 | > 39.7 | 0.382 |  | 0.899 | > 100 | 6.82 | > 100 | 3.65 | > 100 | 5.45 | > 100 | 0.972 | > 65.8 |
| CCN(CC)CCCCCOc1cc(O)c2c(=O)cc(-c3ccccc3)oc2c1 | 6.93 | 23.6 | 3.03 | 10.3 | 1.74 | 3.52 | 1.71 | 3.1 | 2.23 | 5.13 | 3.16 | 11.8 | 12.5 | 26.5 | 1.97 | 3.81 | 7.27 | 20.5 | 6.95 | 17.8 |
| Cc1ccccc1-n1c(/C=C\c2ccccn2)nc2ccccc2c1=O | 23.7 | > 100 | 13.2 | 56.2 | 6.87 | 22 | 14.2 | 33.9 | 5.7 | 39.1 | 11 | 25.8 | 7.44 | 22.3 | 20.6 | 64.4 | 18.1 | > 100 | 35.3 | > 100 |
| C=CC[Se]C(=O)Cc1c(C)n(C(=O)c2ccc(Cl)cc2)c2ccc(OC)cc12 | 1.73 | 3.55 | 1.99 | 4.42 | 1.76 | 3.57 | 1.64 | 3.16 | 1.97 | 4.63 | 1.1 | 2.73 | 1.59 | 3.01 | 1.73 | 3.19 | 1.69 | 3.07 | 1.63 | 3.1 |
| CS(=O)c1ccc(-c2nc(-c3ccc(F)cc3)c(-c3ccncc3)[nH]2)cc1 (stereo not given) | 49 | > 100 | 30 | > 75 | 20.1 | > 63.8 | 11.3 | 43.3 | 28.8 | > 85.6 | 38 | > 100 | 21 | 72.4 | 16.8 | 38.8 | 39.7 | > 100 | 18.8 | > 82 |
| COc1cccc(Cn2cc3c(c2)-c2oncc2CC3)c1 | 0.508 | > 77 | 0.319 | > 100 | 0.43 | 29.4 | 0.374 | > 48.2 | 0.326 | 1.89 | 0.386 | 35.8 | 6.85 | > 100 | 1.98 | > 100 | 1.3 | > 85.4 | 0.361 | 6.03 |
| CCCC[P+](c1ccccc1)(c1ccccc1)c1ccccc1 | 1 | > 100 | 3.46 | > 100 | 2.87 | > 100 | 6.79 | > 100 | 1.22 | 6.85 | 2.34 | > 100 | 3.32 | 74.7 | 19.5 | > 100 | 2.43 | > 100 | 13.4 | > 100 |
| C#CCOc1ccc2ncnc(Nc3ccc(NC(=O)CCl)cc3)c2c1 | 10.9 | 33.2 | 3.48 | 13.3 | 3.68 | 14.9 | 9.4 | 27.7 | 2 | 4.27 | 2.08 | 5.99 | 3.81 | 16.6 | 4.36 | 16 | 11.9 | 39.2 | 12.5 | 38.6 |
| O=C(NCCCNC(=O)OCc1ccc2c(Br)cc(Br)c(O)c2n1)OCc1ccc2c(Br)cc(Br)c(O)c2n1 | > 100 | > 100 | > 100 | > 100 | > 100 | > 100 | > 100 | > 100 | > 100 | > 100 | > 100 | > 100 | > 100 | > 100 | > 100 | > 100 | > 100 | > 100 | > 100 | > 100 |
| O=C(Nc1cccc2cccnc12)c1ccc(N2C(=O)[C@@H]3[C@H](C2=O)[C@@H]2C=C[C@H]3C2)cc1 | 32.2 | > 100 | 42 | > 100 | 35.8 | > 100 | 34.9 | > 100 | 18.4 | 54.4 | 16 | > 100 | 16.3 | > 83.3 | > 74.2 | > 100 | 3.26 | 48.6 | > 62.4 | > 100 |
| COc1ccc(NC(=O)Nc2ccc(Nc3nc(C)cc(Nc4ccc(C)cc4)n3)cc2)cc1 | 2.03 | 4.42 |  |  |  |  | 1.77 | 3.72 | 1.93 | 4.42 | 1.72 | 3.21 | 1.88 | 4.24 | 0.253 | 0.702 | 1.16 | 2.55 | 2.46 | 6.59 |

Source: PubChem BioAssay (NCI)
